For orientation: IC50 means the concentration needed to halve the response being measured.

Like-named read-outs stand apart in the source and are kept apart here.

This passage reports remaining activity and IC50 results from patent US20240228468A1, “N-(6-((OCTAHYDROCYCLOPENTA[C]PYRROL-5-YI)AMINO)PYRIDAZIN-3-YL)PHENYL)CARBOXAMIDE AND (6- ((OCTAHYDROCYCLOPENTA[C]PYRROL-5-YL)AMINO)PYRIDAZIN-3-YL)BENZAMIDE DERIVATIVES AS MACHR M4 ANTAGONISTS FOR THE TREATMENT OF NEURODEGENERATIVE DISORDERS” (Vanderbilt University, priority 2021, published 2024).

In this test the target is T1, Human M4 (Homo sapiens, UniProt P08173).
T1 construct: expressed in transfected cells; host or cells: CHO-K1 (ATCC), co-transfected with chimeric G protein Gqi5
T1 sequence (P08173 1-479): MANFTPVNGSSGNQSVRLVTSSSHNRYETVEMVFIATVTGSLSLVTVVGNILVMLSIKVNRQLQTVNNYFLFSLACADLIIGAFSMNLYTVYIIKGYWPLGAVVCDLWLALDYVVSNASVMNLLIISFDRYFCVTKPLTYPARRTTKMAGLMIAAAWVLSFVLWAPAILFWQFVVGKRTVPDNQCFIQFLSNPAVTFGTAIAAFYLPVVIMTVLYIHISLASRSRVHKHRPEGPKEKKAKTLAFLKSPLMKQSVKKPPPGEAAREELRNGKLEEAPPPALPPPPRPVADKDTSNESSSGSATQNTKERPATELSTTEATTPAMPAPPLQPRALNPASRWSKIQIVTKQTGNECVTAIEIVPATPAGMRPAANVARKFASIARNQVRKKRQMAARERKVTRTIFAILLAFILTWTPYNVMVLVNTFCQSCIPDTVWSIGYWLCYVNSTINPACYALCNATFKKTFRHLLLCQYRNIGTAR
Description: mAChR M4 cell-based functional assay (calcium flux, antagonism of EC80 acetylcholine response). To be noted: for IC50: concentration-dependent decrease of the response elicited by an EC80 concentration of acetylcholine. How it is done: Human or rat M4 cDNA, along with the chimeric G protein Gqi5, were transfected into Chinese hamster ovary (CHO-K1) cells purchased from the American Type Culture Collection using Lipofectamine2000. M4/Gqi5/CHO cells were grown in Ham's F-12 medium containing 10% heat-inactivated fetal bovine serum (FBS), 20 mM HEPES, 500 μg/mL G418 sulfate, and 200 μg/mL Hygromycin B.
For high throughput measurement of agonist-evoked increases in intracellular calcium, CHO-K1 cells stably expressing muscarinic receptors were plated in growth medium lacking G418 and hygromycin at 15,000 cells/20 μL/well in Greiner 384-well black-walled, tissue culture (TC)-treated, clear-bottom plates (VWR). Cells were incubated overnight at 37° C. and 5% CO2. The next day, cells were washed using an ELX 405 (BioTek) with assay buffer; the final volume was then aspirated to 20 μL. Next, 20 μL of a 2.3 μM stock of Fluo-4/acetoxymethyl ester (Invitrogen, Carlsbad, CA), prepared as a 2.3 mM stock in DMSO and mixed in a 1:1 ratio with 10% (w/v) Pluronic F-127 and diluted in assay buffer, was added to the wells and the cell plates were incubated for 50 min at 37° C. and 5% CO2. Dye was removed by washing with the ELX 405 and the final volume was aspirated to 20 μL. Compound master plates were formatted in a 10 point concentration-response curve (CRC) format (1:3 dilutions) in 100% DMSO with a starting concentration of 10 or 1 mM using a BRAVO liquid handler (Agilent). Test compound CRCs were then transferred to daughter plates (240 nL) using the Echo acoustic plate reformatter (Labcyte, Sunnyvale, CA) and then diluted into assay buffer (40 μL) to a 2× stock using a Thermo Fisher Combi (Thermo Fisher Scientific, Waltham, MA).
Calcium flux was measured using the Functional Drug Screening System (FDSS) 6000 or 7000 (Hamamatsu Corporation, Tokyo, Japan) as an increase in the fluorescent static ratio. Compounds were applied to cells (20 μL, 2×) using the automated system of the FDSS at 2 seconds into the protocol and the data were collected at 1 Hz. At 143 s, 10 μL of an EC20 concentration of the muscarinic receptor agonist acetylcholine was added (5×), followed by the addition of 12 μL of an EC80 concentration of acetylcholine at the 268 s time point (5×). Agonist activity was analyzed as a concentration-dependent increase in calcium mobilization upon compound addition. Positive allosteric modulator activity was analyzed as a concentration-dependent increase in the EC20 acetylcholine response. Antagonist activity was analyzed as a concentration-dependent decrease in the EC80 acetylcholine response; for the purposes of the tables herein, an IC50 (inhibitory concentration 50) was calculated as a concentration-dependent decrease of the response elicited by an EC80 concentration of acetylcholine. Concentration-response curves were generated using a four-parameter logistical equation in XLFit curve fitting software (IDBS, Bridgewater, NJ) for Excel (Microsoft, Redmond, WA) or Prism (GraphPad Software, Inc., San Diego, CA) or the Dotmatics software platform (Dotmatics, Bishop's Stortford, UK).
Compounds were synthesized as described above. Activity (IC50 and Emin) was determined in the mAChR M4 cell-based functional assay as described above and the data are shown in Table 2.
A general note: A change in cytosolic calcium serves as a functional read-out for many receptors and channels.

[1] abbreviates: M4/Gqi5/CHO-K1 cells, % ACh maximum at 30 μM, read-out: Human M4 Emin (% ACh maximum at 30 μM).

Turning to `CC(=O)Nc1ccc(-c2ccc(N[C@H]3C[C@@H]4CN(Cc5cccc(F)c5)C[C@@H]4C3)nn2)cc1` [Compound A2, N-(4-(6-(((3aR,5s,6aS)-2-(3-fluorobenzyl)octahydrocyclopenta[c]pyrrol-5-yl)amino)pyridazin-3-yl)phenyl)acetamide], under setting [1], the remaining activity at 30 µM was found to be 4%. In addition, the IC50 (M4/Gqi5/CHO-K1 cells) stood at 51 nM.

As for `[2H]C([2H])(C1CCOCC1)N1C[C@H]2C[C@H](Nc3ccc(-c4cc(F)c(C(=O)NC)c(F)c4F)nn3)C[C@H]2C1` [Compound A66, 2,3,6-trifluoro-N-methyl-4-(6-(((3aR,5s,6aS)-2-((tetrahydro-2H-pyran-4-yl)methyl-d2)octahydrocyclopenta[c]pyrrol-5-yl)amino)pyridazin-3-yl)benzamide], the remaining activity at 30 µM under setting [1] is 4%. For the same compound, the IC50 (M4/Gqi5/CHO-K1 cells) was 16 nM.

`O=C(c1ccc(-c2ccc(N[C@H]3C[C@@H]4CN(CC5CCOCC5)C[C@@H]4C3)nn2)cc1)N1CCCC1` [Compound A21, Pyrrolidin-1-yl(4-(6-(((3aR,5s,6aS)-2-((tetrahydro-2H-pyran-4-yl)methyl)octahydrocyclopenta[c]pyrrol-5-yl)amino)pyridazin-3-yl)phenyl)methanone]: the remaining activity at 30 µM (CHO-K1, read-out: Human M4 Emin (% ACh maximum at 30 μM)) was 4%. Further, the IC50 (M4/Gqi5/CHO-K1 cells) amounted to 3.9 nM.

On to `[2H]C([2H])([2H])NC(=O)c1ccccc1-c1ccc(N[C@H]2C[C@@H]3CN(C([2H])([2H])C4CCOCC4)C[C@@H]3C2)nn1` [Compound A53, N-(methyl-d3)-2-(6-(((3aR,5s,6aS)-2-((tetrahydro-2H-pyran-4-yl)methyl-d2)octahydrocyclopenta[c]pyrrol-5-yl)amino)pyridazin-3-yl)benzamide], for which the remaining activity at 30 µM under setting [1] came out at 4%. The IC50 (M4/Gqi5/CHO-K1 cells) was 200 nM.

With `[2H]C([2H])([C@@H]1CCCOC1)N1C[C@H]2C[C@H](Nc3ccc(-c4cccc(C(=O)NC)c4)nn3)C[C@H]2C1` [Compound A79, N-methyl-3-(6-(((3aR,5s,6aS)-2-(((S)-tetrahydro-2H-pyran-3-yl)methyl-d2)octahydrocyclopenta[c]pyrrol-5-yl)amino)pyridazin-3-yl)benzamide], the remaining activity at 30 µM under setting [1] amounted to 5%. For the same compound, the IC50 (M4/Gqi5/CHO-K1 cells) was determined as 92 nM.

Regarding `CC(=O)Nc1ccc(-c2ccc(N[C@H]3C[C@@H]4CN(Cc5ccccc5F)C[C@@H]4C3)nn2)cc1` [Compound A1, N-(4-(6-(((3aR,5s,6aS)-2-(2-fluorobenzyl)octahydrocyclopenta[c]pyrrol-5-yl)amino)pyridazin-3-yl)phenyl)acetamide], the remaining activity at 30 µM under setting [1] is 4%. Also, for the setting “M4/Gqi5/CHO-K1 cells”, the IC50 is 62 nM.

In the case of `[2H]C([2H])(C1CCOCC1)N1C[C@H]2C[C@H](Nc3ccc(-c4cc(F)c(C(N)=O)c(F)c4)nn3)C[C@H]2C1` [Compound A68, 2,6-difluoro-4-(6-(((3aR,5s,6aS)-2-((tetrahydro-2H-pyran-4-yl)methyl-d2)octahydrocyclopenta[c]pyrrol-5-yl)amino)pyridazin-3-yl)benzamide], under setting [1], the remaining activity at 30 µM was 4%. Also, the IC50 (M4/Gqi5/CHO-K1 cells) was determined as 11 nM.

Consider `CC(=O)Nc1ccc(-c2ccc(N[C@H]3C[C@@H]4CN(Cc5cc(C)n(C)n5)C[C@@H]4C3)nn2)cc1` [Compound A5, N-(4-(6-(((3aR,5s,6aS)-2-((1,5-dimethyl-1H-pyrazol-3-yl)methyl)octahydrocyclopenta[c]pyrrol-5-yl)amino)pyridazin-3-yl)phenyl)acetamide], for which the remaining activity at 30 µM under setting [1] is 10%. Also, the IC50 (M4/Gqi5/CHO-K1 cells) is 2300 nM.

Turning to `CC(=O)Nc1ccc(-c2ccc(N[C@H]3C[C@@H]4CN(Cc5ccc(F)cc5)C[C@@H]4C3)nn2)cc1` [Compound A3, N-(4-(6-(((3aR,5s,6aS)-2-(4-fluorobenzyl)octahydrocyclopenta[c]pyrrol-5-yl)amino)pyridazin-3-yl)phenyl)acetamide], the remaining activity at 30 µM under setting [1] worked out at 2%. The IC50 (M4/Gqi5/CHO-K1 cells) worked out at 10 nM.
